Reference: PMC5844890 (Scientific Reports, 2018)
Like-named read-outs stand apart in the source and are kept apart here.

How the values were obtained:
[1] = system: MDA-MB-231, CEM, HeLa and HMEC-1 cells; test: Anti-proliferative activity, summary over tumor and endothelial cell lines; assay type: cell-based; conditions: Homo sapiens
Method: (§1) The anti-proliferative activity of the synthesized benzofurane derivatives was studied in three human cancer cell lines [breast carcinoma (MDA-MB-231), lymphoblastic leukemia (CEM) and cervical carcinoma (HeLa) cells] and one endothelial cell line [human microvascular endothelial cells (HMEC-1)].
(§2) HMEC-1 cells were seeded in 48-well plates at 20,000 cells/well. After 24 h, 5-fold dilutions of the compounds were added. The cells were allowed to proliferate 4 days in the presence of the compounds, trypsinized, and counted by means of a Coulter counter (Analis, Belgium). HeLa and MDA-MB-231 cells were seeded in 48-well plates at 10,000 cells/well. After 24 h, different concentrations of the compounds were added. After 3 days of incubation, the cells were trypsinized and counted in a Coulter counter. Suspension cells (human lymphoid Cem cells) were seeded in 96-well plates at 60,000 cells/well in the presence of different concentrations of the compounds, allowed to proliferate for 96 h, and counted in a Coulter counter. The 50% inhibitory concentration (IC50) was defined as the compound concentration required to reduce cell proliferation by 50%.

HeLa cells = test: Anti-proliferative activity, HeLa cervical carcinoma cells (Coulter counting); assay type: cell-based; conditions: Homo sapiens, 72 h, mean ± SD of three independent experiments, 3 days of incubation, read-out: Tumor cells IC50 HeLa
From the text: as §1
(§3) The human microvascular endothelial cell line HMEC-1 was obtained at passage 12 from the Centers for Disease Control and Prevention (Atlanta, GA, USA) and used from passage 17 till 27. Human breast carcinoma (MDA-MB-231), human cervical carcinoma (HeLa) and human T-lymphoid (CEM) cells were obtained from ATCC (Middlesex, UK). Cell lines were maintained in culture for up to 3 months and grown in DMEM, supplemented with 10% FBS, 0.01 M Hepes and 1 mM sodium pyruvate. All cells were cultured in a humidified 5% CO2 incubator at 37 °C.
as §2

HMEC-1 cells = test: Anti-proliferative activity, HMEC-1 microvascular endothelial cells (Coulter counting); assay type: cell-based; conditions: Homo sapiens, HMEC-1, 96 h; mean ± SD of three independent experiments; 4 days; read-out: Endothelial cells IC50 HMEC-1
From the text: as §1, §3, §2

MDA-MB-231 cells [2] = test: Anti-proliferative activity, MDA-MB-231 breast carcinoma cells (Coulter counting); assay type: cell-based; conditions: Homo sapiens, MDA-MB-231, 72 h; mean ± SD of three independent experiments; 3 days of incubation; read-out: Tumor cells IC50 MDA-MB-231
From the text: as §1, §3, §2

MDA-MB-231 cells [3] = test: Caspase-3 activity / apoptosis in live cells (fluorescence microscopy); assay type: cell-based, human; conditions: 1 µM, after 24 h
Method: Figure 6 Mechanism of action of the benzofurane derivatives. (A) Inhibition of cell cycle progression. MDA-MB-231 cells were treated with DMSO (control) or compounds 8, 27 or 28 for 24 h. Next, the cells were harvested, stained with propidium iodide (PI), and cell cycle distribution was evaluated by flow cytometry. Percentages of cells in the different phases of the cell cycle are indicated. (B) Caspase-3 activity. MDA-MB-231 cells were seeded in 48-well plates at 40,000 cells/cm². After 24 h, different concentrations of compounds 8, 27 or 28 and 2 µM of the caspase-3 substrate DEVD-NucView488 were added. After 16 h, the cells were incubated with 2 µg/ml Hoechst 33342 to stain the nucleus, and imaged. (C) Disruption of the vascular network. HMEC-1 cells were cultured on matrigel for 3 h to allow the formation of tube-like structures. Next, different concentrations of compounds were added. Upper panel: After 90 min, pictures were taken and the tubular network was scored (3: intact network, 0: network completely destroyed). Bars show average ± SEM (n = 4). Lower panel: Microscopic pictures of the tubular network 3 h after addition of compound.
To confirm the capacity of compounds 27 and 28 to induce apoptosis, MDA-MB-231 cells were treated with the compounds for 24 h in the presence of NucView® 530 Caspase-3. This substrate is cleaved by active caspase-3 activity (the main executioner enzyme during apoptosis) to generate a fluorescent derivative that is analyzed using fluorescence microscopy.
MDA-MB-231 cells were seeded at 40,000 cells/cm². After 24 h, cells were incubated in Fluorobrite DMEM (Gibco), containing the compound and 2 µM of the caspase-3 substrate DEVD-NucView488 (Biotium, Hayward, CA). After 16 h, the DNA was stained with Hoechst33342 and the cells were imaged by fluorescence microscopy.

[4] = Endothelial cell, range stated in the conclusions, read-out: IC50 (antiproliferative activity against tumor and endothelial cells)
[5] = range over tumor and endothelial cell lines, read-out: IC50 values ranging (antiproliferative, all cell lines of Table 1)

| Compound | IC50 [1, 4] [nM] | IC50 [1, 5] [nM] | IC50 (HeLa cells) [nM] | IC50 (HMEC-1 cells) [nM] | IC50 (MDA-MB-231 cells [2]) [nM] | apoptotic rate (apoptotic cells, caspase-3 substrate) (MDA-MB-231 cells [3]) |
| --- | --- | --- | --- | --- | --- | --- |
| COCc1cc2cccc(NC(C)=C3C(=O)CC(c4ccccc4)CC3=O)c2o1 (stereo not drawn) [Compound 27, 2-(1-((2-(Methoxymethyl)benzofuran-7-yl)amino)ethylidene)-5-phenylcyclohexane-1,3-dione] | 8 to 31 | 9 to 51 | 30 ± 2 | 16 ± 2 | 9 ± 1 | ~ 30% |
| CC(Nc1cccc2cc(COCCCO)oc12)=C1C(=O)CC(c2ccccc2)CC1=O (stereo not drawn) [Compound 28, 2-(1-((2-((3-Hydroxypropoxy)methyl)benzofuran-7-yl)amino)ethylidene)-5-phenylcyclohexane-1,3-dione] | 8 to 31 | 9 to 51 | 34 ± 3 | 38 ± 3 | 12 ± 5 | ~40% |
